The values that follow come from ChEMBL document CHEMBL5550091 (2024).

pEC50, pIC50, pKi: −log10 of the molar value. Activity calls are given as the source filed them. No cut-off for these calls is given here.

Test [1] is described as follows: Displacement of BODIPY TMR-X-labeled P11 peptide from recombinant N-terminal deca-His/SUMO tagged RTA (1 to 267 residues) (unknown origin) expressed in Escherichia coli BL21 (DE3) incubated for 30 mins by competition binding based fluorescence polarization assay.
Test [2] can be described thus: Inhibition of recombinant N-terminal deca-His/SUMO tagged RTA (1 to 267 residues) (unknown origin) expressed in Escherichia coli BL21 (DE3) mediated ribosome depurination activity assessed as reduction in ribosomal RNA depurination preincubated with compound for 5 mins followed by addition of rat liver ribosomes and measured after 5 mins by qRT-PCR analysis. Format: subcellular.

Test [3] is described as follows: Inhibition of recombinant N-terminal deca-His/SUMO tagged RTA (1 to 267 residues) (unknown origin) expressed in Escherichia coli BL21 (DE3) mediated ribosome depurination activity assessed as maximal inhibition of cellular ribosomal RNA depurination preincubated with compound for 5 mins followed by addition of rat liver ribosomes and measured after 5 mins by qRT-PCR analysis relative to control. Format: subcellular. Conditions: time 10.0 min.

A short description of test [4]: Displacement of BODIPY TMR-X-labeled P11 peptide from recombinant N-terminal deca-His/SUMO tagged RTA (1 to 267 residues) (unknown origin) expressed in Escherichia coli BL21 (DE3) assessed as inhibition constant incubated for 30 mins by competition binding based fluorescence polarization assay.
Test [5] is described as follows: cells. It counts as cell-based. Particulars: Vero, 2 h.
Test [6] is described as follows: cells. It counts as cell-based. Conditions: A549, 2 h.
Test [7] is described as follows: Inhibition of STX2A1 (unknown origin) mediated ribosomal depurination activity assessed as reduction in ribosomal RNA depurination preincubated with compound for 5 mins followed by addition of rat liver ribosomes and measured after 5 mins by qRT-PCR analysis. Format: subcellular, Ribosome.

As to `O=C(O)c1cc2c(s1)-c1ccc(F)cc1CC2`, the pIC50 in test [1] was 4.77; in test [2], 4.49. Moreover, the Imax in test [3] turned out to be 104%.

Turning to `Cc1cccc(C)c1-c1ccc(C(=O)O)s1`, the pIC50 in test [1] is 4.51; in test [2] it was 4.35. In test [3], the Imax stood at 102%.

As to `O=C(O)c1cc2c(s1)-c1ccccc1CC2`, the Imax in test [3] turned out to be 100%.

As for H-SDDDMGFGLFD-OH, the pIC50 in test [1] was 5.40; in test [2], 4.51. Moreover, in test [4], the pKi was 6.00.

With `NC(=O)c1cccc2c1-c1ccccc1C2=O`, in test [1], the result was inactive.

For H-RGWGHPSGYS-OH, the outcome in test [1] was inactive.

As for `CC1(C)Cc2cc(C(=O)O)sc2-c2ccccc21`, the figures for the pEC50 in “cells [5]” and in the test “cells [6]” were 4.54 and 4.04, respectively. Besides, the pIC50 in test [2] is 4.64; in test [7], 4.08. In addition, the Imax in test [3] was determined as 112%.

On to `O=C(O)c1cc2c(s1)-c1cc(Cl)ccc1SC2`, for which the pIC50 in test [1] is 4.23. In addition, the pKi in test [4] was 4.82.

As to `O=C(O)c1ccc(-c2ccccc2)s1`, the figures for the negative logarithm of the IC50 (pIC50) in test [1] and in test [2] were 3.65 and 3.39, respectively. Besides, the pKi in test [4] is 4.24.
